Test results taken from paper PMC8067766 (International Journal of Molecular Sciences, 2021).
Where a SMILES comes first, the peptide text is derived from it.

What was measured:
[1] = tested on: dorsal skin wounds; test: Histological analysis of healed skin (Masson's trichrome); assay type: in vivo, BALB/c female mice; conditions: skin sampled day 18 after injury
Method: Mice were euthanized on day 18 after the injury. Skin from their backs was sampled and stored in formalin. Samples were then embedded in paraffin, cut into 5 µm sections and stained with Masson’s trichrome staining (light green for control and FC-GHK samples and aniline blue for the FC peptide and both fibrillated peptides). Stained sections were evaluated using a light microscope.

[2] = tested on: 46BR.1N fibroblasts; test: Collagen synthesis analysis (Direct red 80); assay type: cell-based, human; conditions: 25.0 µg/mL; 6 days; Direct red 80, 550 nm, percentage of control
Method: 46BR.1N fibroblasts were seeded into 96-well plates, at a density of 3000 cells per well, in DMEM medium supplemented with 10% FBS. After 24 h, when the cells had attached to the plate, the medium was exchanged for a fresh one, and the cells were stimulated with appropriate concentrations of the tested peptides. Half of the medium was exchanged every two days, with additional stimulation during every medium exchange, and the cells were cultured in the presence of the peptides for six days. The medium was then removed and the cells were washed with PBS, fixed for 1 h in Bouin’s fluid (15 mL of saturated picric acid, 5 mL of 37% formaldehyde and 1 mL of acetic acid), washed in running tap water for 15 min and air dried. The cells were stained for 1 h with Direct red 80 (Sigma Aldrich, St. Louis, MO, USA) dissolved in saturated aqueous picric acid solution at a concentration of 1 mg/mL, while gently shaking the plate on a microplate shaker. The dye was removed and the cells were washed with a 0.01 M hydrochloric acid solution to remove unbound dye. The cells were photographed with a light microscope. The dye was then dissolved in 0.1 M sodium hydroxide for 30 min by shaking the plate on a microplate shaker at room temperature. The solution was transferred to a new plate and a spectrophotometric analysis was performed at 550 nm, using 0.1 N sodium hydroxide as a blank. […]

[3] = tested on: HaCaT keratinocytes; test: XTT proliferation assay, keratinocytes; assay type: cell-based, human; conditions: for increase in proliferation by fibrils compared to control (XTT): fibrillated form, 10 µL of fibrils (50 µg/mL), 48 h, not statistically significant; for stimulation of proliferation (XTT), in words / inhibition of proliferation (XTT), in words: non-fibrillated peptide, 48 and 72 h; for inhibition of proliferation (XTT), in words: up to 25 µg/mL
Method: Immortalized human HaCaT [69, 70] keratinocytes (DKFZ, Heidelberg, Germany) and the human dermal fibroblast cell line 46BR.1N (ECACC, Sigma Aldrich, St. Louis, MO, USA) were used in the study. Cells were routinely grown in culture flasks (growth surface area 25 cm^2) in Dulbecco’s modified Eagle medium (DMEM, Sigma Aldrich, St. Louis, MO, USA), with 4500 mg/L of glucose, 584 mg/L of L-glutamine, sodium pyruvate, and sodium bicarbonate, supplemented with 10% FBS and 100 units/mL of penicillin and 100 μg/mL of streptomycin (Sigma Aldrich, St. Louis, MO, USA), under a humidified atmosphere with 5% CO2 at 37 °C. Medium was changed every 2–3 days.
Lactate dehydrogenase (LDH) activity in cell culture supernatants (Takara, Japan, cat. No. MK401) was measured to determine the cytotoxicity of the tested compounds, and the XTT assay was used to evaluate their effect on cell proliferation. Both tests were performed as previously described according to manufacturers’ instructions. Briefly, cells were seeded into 96-well plates, at a density of 5000 cells per well, in DMEM supplemented with 10% FBS. After 24 h the medium was exchanged for serum-free DMEM containing appropriate concentrations of the tested compounds. Supernatants for LDH analysis were collected after 48 h of incubation. The XTT assay was performed after 48 and 72 h of incubation.
For the analysis of the effect of the peptide fibrils on skin cells, the experiment was performed as described, but the cells were stimulated with 10 µL of the fibrils (50 µg/mL) and incubated for 48 h, when the LDH and XTT assay were then performed.

[4] = tested on: dorsal skin wounds; test: Wound healing in a dorsal skin excision model in mice; assay type: in vivo, BALB/c female mice
Text: Eight-week-old BALB/c female mice were used for experiments. All experimental procedures were approved by the Local Ethics Committee in Bydgoszcz (Approval No. 49/2016). The mice were anesthetized with inhaled 2–5% isoflurane. The skin on the back was shaved and disinfected. The skin was folded and raised cranially and caudally along the spine. The mouse was then placed in a lateral position, and the folded skin was pierced with a 6.0 mm diameter biopsy punch, resulting in the formation of two excisional, symmetrical wounds on the back of the mouse. Before peptides administration, mice were randomly divided into treatment and control groups comprising six individuals. A total of 10 µL of 1 mg/mL peptide solution suspended in saline or fibrils solution suspended in PBS at the same concentration, was applied to each wound. Control groups received saline only. The wounds were covered with transparent Tegaderm film and an adhesive plaster was wrapped around the mouse torso. During the first week of the experiment, the wounds were treated with the peptide daily for five consecutive days along with replacement of the dressing. During the second week of the experiment, the dressing was replaced every other day with no further stimulation. For fibrils the solution was administered once after wounding and the dressing was replaced every two days. At the beginning of the third week, the dressing was removed. To measure the wound area, a ruler was placed next to the injury site, and the wound was photographed. Wound areas were calculated using ImageJ software.

[5] = Transmission electron microscopy of fibrils; assay type: physicochemical; conditions: 1.0 mg/mL in PBS pH 7.4, TEM, uranyl acetate stain
Method: All peptides were dissolved in Eppendorf Low Retention Tubes in 1.0 mL of PBS pH 7.4. The concentration of the solutions of peptides was 1.0 mg/mL. The peptides were incubated at 37 °C with constant orbital shaking. Aliquots for the evaluation of the fibrillization process were taken before incubation and after 1, 2, 3, 6, 14, and 21 days or only after 7 days, depending on the experiments.
Peptide samples (5 µL) were applied on a glow-discharged carbon-coated copper grid (400 mesh). After 1 min of adsorption, excess liquid was removed using filter paper, and the samples were stained with 2% (v/v) aqueous uranyl acetate. The samples were examined with a TECNAI SPIRIT BIO TWIN FEI (FEI Company, Hillsboro, OR, USA) at 120 kV, with nominal magnifications between 11,500 and 39,000. The assay was performed for samples before (after dissolution) and after 3 days of incubation.

[6] = non-fibrillated peptide, 1 mg/mL in saline, five daily applications

fibril thickness (TEM) [5]	Structure (SMILES)	muscle cell growth in wound area (histology) ([1]; fibrillated peptide)	muscle cell layer in restored tissue (histology) ([1]; non-fibrillated peptide)	increase in collagen synthesis [2]	increase in proliferation by fibrils compared to control (XTT) [3]	stimulation of proliferation (XTT), in words [3]	inhibition of proliferation (XTT), in words [3]	wound closure rate compared to control ([4]; fibrillated peptide, 10 µL of 1 mg/mL in PBS per wound, administered once, n = 16 wounds)	wound closure and scars of FC-GHK compared with FC and control [4, 6]	wound epithelialization compared with the control [4, 6]	wound state on day 14 post-injury [4, 6]	wound closure compared to the control group ([4]; non-fibrillated peptide, 10 µL of 1 mg/mL in saline per wound, five daily applications, n = 12 wounds)
–	CC[C@H](C)[C@H](NC(=O)CNC(=O)[C@H](C)NC(=O)[C@H](CCC(N)=O)NC(=O)CNC(=O)CNC(=O)CNC(=O)[C@@H](NC(=O)[C@@H]1CCCN1C(=O)[C@H](C)NC(=O)[C@H](C)NC(=O)CNC(=O)CNC(=O)CNC(=O)[C@H](CCCCN)NC(=O)[C@H](Cc1c[nH]cn1)NC(=O)CNC(C)=O)C(C)C)C(=O)N[C@H](C(=O)N[C@H](C(N)=O)C(C)C)C(C)C [FC-GHK] (Ac-GHKGGGAAPVGGGQAGIVV-NH2)	No such cell growth was present	modest reconstruction of the muscle cell layer	30%	about 10%	stimulated proliferation of both tested cell lines at concentrations of 0.01–10 µg/L	slight inhibition of the proliferation of skin cells after 72 h stimulation	the difference in wound closure rate could be observed on day 4 post-injury without statistical significance	faster wound closure than for the FC peptide and significantly smaller scars compared to the control group	increased epithelialization on the second day	closed entirely	significantly and consistently accelerated from day 2 till day 14
10–12 nm	CC[C@H](C)[C@H](NC(=O)CNC(=O)[C@H](C)NC(=O)[C@H](CCC(N)=O)NC(=O)CNC(=O)CNC(=O)CNC(=O)[C@@H](NC(=O)[C@@H]1CCCN1C(=O)[C@H](C)NC(=O)[C@H](C)NC(=O)CNC(=O)CNC(=O)CNC(=O)[C@H](CCCCN)NC(=O)[C@H](Cc1c[nH]cn1)NC(=O)CNC(=O)[C@H](CCCCN)NC(C)=O)C(C)C)C(=O)N[C@H](C(=O)N[C@H](C(N)=O)C(C)C)C(C)C [FC-KGHK] (Ac-KGHKGGGAAPVGGGQAGIVV-NH2)	–	–	40%	about 10%	most potent stimulation was observed at concentrations of 1.0 µg/mL after 48 h and 0.1 µg/mL after 72 h incubation	did not inhibit the proliferation of skin cells	–	–	–	–	–
